Results as given in patent US4562287A, “2-(4-Biphenylyl)-4-hexenoic acid and derivatives thereof having anti-inflammatory activity” (priority 1983, dated 1985).

Columns and labels:
[1] = in vivo; details: po, rat, p.o., read-out: DL50 (the source's name)
[2] = tested on: Carragenine induced edema; assay: Activity on carragenine induced edema (Table 9); type: in vivo
Source text: |Activity on carragenine induced edema.

[3] = tested on: Carragenine induced edema; assay: Anti-inflammatory activity on carragenine induced edema (Table 11); type: in vivo
[4] = tested on: Hot plate, endurance time at 52° C.; assay: Analgesic activity, Hot plate (I); type: in vivo; details: 50 mg/Kg p.o.
Procedure: (§1) Dose endurance time at 52° C. over checks

[5] = tested on: Hot plate, endurance time at 52° C.; assay: Analgesic activity, Hot plate (II); type: in vivo
Procedure: as §1

[6] = tested on: pain threshold; assay: Analgesic activity, RANDALL-SELLITO pain threshold; type: in vivo
Source text: | RANDALL-SELLITO pain threshold

[7] = tested on: erytrocytes sedimetation rate (ESR); assay: Erytrocytes sedimetation rate (ESR) (Table 8); type: in vivo; details: arthritis checks 41, 56
[8] = tested on: Joint's diameter; assay: Joint's diameter in arthritis (Table 7); type: in vivo; parameters: unit not given here
[9] = tested on: Carragenine induced edema; assay: Carragenine induced edema, first test (Table 2); type: in vivo
Source text: |ANTI-INFLAMMATORY ACTIVITY. |Carragenine induced edema, first test.

[10] = tested on: ulcerogenic effect; details: dose 5 mg; cited from earlier work
[11] = tested on: Freund's adjuvant induced arthritis; assay: Freund's adjuvant induced arthritis, edema inhibition
[12] = tested on: SH Groups in serum; assay: SH groups in serum (Table 8); type: in vivo; details: arthritis checks 70, 77
[13] = British Patent No. 847.779; cited from earlier work
[14] = tested on: Kaolin edema; assay: Edema induced by different substances: kaolin (Table 3); type: in vivo
Source text: (§2) |Edema induced by different substances.

[15] = tested on: Cotton-pellets induced granuloma; assay: Cotton-pellets induced granuloma; type: in vivo; details: 200 mg/Kg p.o.
Source text: | Cotton-pellets induced granuloma.

[16] = tested on: capillary permeability (Dextran); assay: Effect on the capillary permeability, dextran; type: in vivo; details: 200 mg/Kg p.o., checks 14.83
Source text: (§3) |Effect on the capillary permeability

[17] = tested on: capillary permeability (Serotonin); details: 200 mg/Kg p.o., checks 18.16
[18] = tested on: Carragenine edema; assay: Edema induced by different substances: carragenine (Table 3); type: in vivo
Source text: as §2

[19] = tested on: Yeast edema; assay: Edema induced by different substances: yeast (Table 3); type: in vivo
Source text: |Edema induced by different substances. | % edema inhibition

[20] = tested on: Serotonin edema; assay: Edema induced by different substances: serotonin (Table 3); type: in vivo
Source text: as §2

[21] = tested on: capillary permeability (Histamine); assay: Effect on the capillary permeability, histamine; type: in vivo; details: 200 mg/Kg p.o., checks 21.33
Source text: as §3

[22] = tested on: Dextrose edema; assay: Edema induced by different substances: dextrose (Table 3); type: in vivo
Source text: as §2

CC=CCC(C(=O)O)c1ccc(-c2ccc(F)cc2)cc1 (centres unmarked) [SCR 159, 2-[4-biphenylyl-(4' fluoro)]4-hexenoic acid]
LD50 [1]: 900 mg/kg | Inhibition % ([2]; 53 mg/Kg p.o.): 29% | Inhibition % ([2]; 80 mg/Kg p.o.): 26% | Inhibition % ([2]; 120 mg/Kg p.o.): 26% | % inhibition ([3]; 50 mg/Kg p.o.): 32% | endurance time at 52° C. over checks ([4]; 2 hours): 38 | endurance time at 52° C. over checks ([5]; Hot plate (II), 35,6 mg/Kg p.o., 1 hour): 22 | endurance time at 52° C. over checks ([5]; Hot plate (II), 35,6 mg/Kg p.o., 2 hours): 43 | endurance time at 52° C. over checks ([5]; Hot plate (II), 53,45 mg/Kg p.o., 1 hour): 45 | endurance time at 52° C. over checks ([5]; Hot plate (II), 53,45 mg/Kg p.o., 2 hours): 29 | endurance time at 52° C. over checks ([5]; Hot plate (II), 80,18 mg/Kg p.o., 1 hour): 26 | RANDALL-SELLITO pain threshold over checks ([6]; 23,7 mg/Kg p.o., 1 hour): 55 | RANDALL-SELLITO pain threshold over checks ([6]; 23,7 mg/Kg p.o., 2 hours): 7 | RANDALL-SELLITO pain threshold over checks ([6]; 35,6 mg/Kg p.o., 1 hour): 49 | RANDALL-SELLITO pain threshold over checks ([6]; 35,6 mg/Kg p.o., 2 hours): 32 | RANDALL-SELLITO pain threshold over checks ([6]; 53,45 mg/Kg p.o., 1 hour): 47 | RANDALL-SELLITO pain threshold over checks ([6]; 53,45 mg/Kg p.o., 2 hours): 16

COc1ccc2c(c1)c(CC(=O)O)c(C)n2C(=O)c1ccc(Cl)cc1 [Indomethacin]
E.S.R. ([7]; 1 mg/Kg p.o.): 38 | E.S.R. ([7]; 2 mg/Kg p.o.): 15 | Joint's diameter ([8]; 1 mg/Kg p.o., 1 week, arthritis checks 0.48, 0.38): 0.38 | Joint's diameter ([8]; 1 mg/Kg p.o., 2 weeks, arthritis checks 0.71, 0.75): 0.50 | Joint's diameter ([8]; 1 mg/Kg p.o., 3 weeks, arthritis checks 0.81, 0.79): 0.49 | Joint's diameter ([8]; 1 mg/Kg p.o., 4 weeks, arthritis checks 0.85, 0.89): 0.55 | Joint's diameter ([8]; 2 mg/Kg p.o., 1 week, arthritis checks 0.48, 0.38): 0.22 | Joint's diameter ([8]; 2 mg/Kg p.o., 2 weeks, arthritis checks 0.71, 0.75): 0.39 | Joint's diameter ([8]; 2 mg/Kg p.o., 3 weeks, arthritis checks 0.81, 0.79): 0.34 | Joint's diameter ([8]; 2 mg/Kg p.o., 4 weeks, arthritis checks 0.85, 0.89): 0.34 | % inhibition ([3]; 5 mg/Kg p.o.): 38% | % inhibition ([9]; 2.5 mg/Kg p.o.): 33% | % inhibition ([9]; 5 mg/Kg p.o.): 36% | % inhibition ([9]; 10 mg/Kg p.o.): 48% | ulcerogenic effect [10]: exhibits surely ulcerogenic effect | Edema inhibition % ([11]; 1 mg/Kg p.o., 2 days): 49% | Edema inhibition % ([11]; 1 mg/Kg p.o., 4 days): 7% | Edema inhibition % ([11]; 1 mg/Kg p.o., 8 days): 27% | Edema inhibition % ([11]; 1 mg/Kg p.o., 12 days): 58% | Edema inhibition % ([11]; 1 mg/Kg p.o., 16 days): 60% | Edema inhibition % ([11]; 1 mg/Kg p.o., 20 days): 37% | Edema inhibition % ([11]; 1 mg/Kg p.o., 24 days): 57% | Edema inhibition % ([11]; 2 mg/Kg p.o., 2 days): 49% | Edema inhibition % ([11]; 2 mg/Kg p.o., 4 days): 35% | Edema inhibition % ([11]; 2 mg/Kg p.o., 8 days): 51% | Edema inhibition % ([11]; 2 mg/Kg p.o., 12 days): 48% | Edema inhibition % ([11]; 2 mg/Kg p.o., 16 days): 71% | Edema inhibition % ([11]; 2 mg/Kg p.o., 20 days): 73% | Edema inhibition % ([11]; 2 mg/Kg p.o., 24 days): 71% | SH groups diminution in % ([12]; 1 mg/Kg p.o.): 78% | SH groups diminution in % ([12]; 2 mg/Kg p.o.): 50%

CC=CCC(C(=O)O)c1ccc(-c2ccccc2)cc1 (racemic) [SCR 157, 2-(4-biphenyl)-4-hexenoic acid]
anticholesterinemic and antiliphaemic properties [13]: exhibits properties of anticholesterinemic and antiliphaemic agent | % edema inhibition ([14]; 50 mg/Kg p.o.): 42% | % edema inhibition ([14]; 100 mg/Kg p.o.): 49% | % edema inhibition ([14]; 200 mg/Kg p.o.): 57% | % inhibition [15]: 29% | Inhibition % ([2]; 50 mg/Kg p.o.): 10% | Inhibition % ([2]; 75 mg/Kg p.o.): 31% | Inhibition % ([2]; 112,5 mg/Kg p.o.): 24% | Effect on the capillary permeability, .0. m.micron [16]: 14.85 m.micron | Effect on the capillary permeability, .0. m.micron [17]: 16.57 m.micron | % edema inhibition ([18]; 50 mg/Kg p.o.): 8% | % edema inhibition ([18]; 100 mg/Kg p.o.): 43% | % edema inhibition ([18]; 200 mg/Kg p.o.): 64% | % edema inhibition ([19]; 50 mg/Kg p.o.): 11% | % edema inhibition ([19]; 100 mg/Kg p.o.): 22% | % edema inhibition ([19]; 200 mg/Kg p.o.): 28% | % inhibition ([3]; 50 mg/Kg p.o.): 33% | % edema inhibition ([20]; 50 mg/Kg p.o.): 0% | % edema inhibition ([20]; 100 mg/Kg p.o.): 16% | % edema inhibition ([20]; 200 mg/Kg p.o.): 22% | endurance time at 52° C. over checks ([4]; 1 hour): 3 | endurance time at 52° C. over checks ([4]; 2 hours): 26 | Effect on the capillary permeability, .0. m.micron [21]: 20.28 m.micron | % edema inhibition ([22]; 50 mg/Kg p.o.): 0% | % edema inhibition ([22]; 100 mg/Kg p.o.): 8% | % edema inhibition ([22]; 200 mg/Kg p.o.): 8%
